Values quoted from earlier work, collected in patent US10160759B2, “Hydroxyethyl sulfonate of cyclin-dependent protein kinase inhibitor, crystalline form thereof and preparation method therefor” (Jiangsu Hengrui Medicine Co., Ltd., priority 2015, dated 2018).

Conditions: patients, clinical trial NCT00721409

SMILES: N#Cc1ccc(C(c2ccc(C#N)cc2)n2cncn2)cc1 [letrozole]
- progression-free survival (PFS): 7.5 months
